Assay results reported in ChEMBL document CHEMBL1143235, “1-Hydroxy-2-pyridinone-based MMP inhibitors: synthesis and biological evaluation for the treatment of ischemic stroke” (Bioorg Med Chem Lett, 2008).
Calls of active or inactive are those of the source. The calls are words filed in the database; no cut-off is given here.

Key:
[1] = target: T1, Matrix metalloproteinase-9 (Homo sapiens, UniProt P14780); assay: Inhibition of MMP9
[2] = target: T2, 72 kDa type IV collagenase (Homo sapiens, UniProt P08253); assay: Inhibition of MMP2
Target sequence in this assay (P08253 whole entry): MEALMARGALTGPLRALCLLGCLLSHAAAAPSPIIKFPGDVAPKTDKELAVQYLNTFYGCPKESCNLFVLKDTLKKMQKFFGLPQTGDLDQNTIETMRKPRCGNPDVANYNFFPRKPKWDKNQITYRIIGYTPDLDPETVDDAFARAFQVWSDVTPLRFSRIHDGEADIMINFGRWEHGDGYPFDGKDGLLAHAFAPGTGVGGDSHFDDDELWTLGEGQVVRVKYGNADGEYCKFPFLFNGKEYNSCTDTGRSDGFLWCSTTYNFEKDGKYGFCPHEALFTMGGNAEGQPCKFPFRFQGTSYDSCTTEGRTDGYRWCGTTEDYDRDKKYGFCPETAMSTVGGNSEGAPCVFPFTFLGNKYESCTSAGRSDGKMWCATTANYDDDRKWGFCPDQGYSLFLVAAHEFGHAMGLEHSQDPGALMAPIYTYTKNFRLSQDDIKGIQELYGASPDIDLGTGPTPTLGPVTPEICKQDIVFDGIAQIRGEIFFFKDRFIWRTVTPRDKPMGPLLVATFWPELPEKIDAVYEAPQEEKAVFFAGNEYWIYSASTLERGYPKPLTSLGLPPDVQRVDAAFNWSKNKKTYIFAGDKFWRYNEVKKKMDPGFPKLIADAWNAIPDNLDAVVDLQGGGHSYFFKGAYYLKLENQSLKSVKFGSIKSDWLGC

Interstitial collagenase = target: T3, Interstitial collagenase (Homo sapiens, UniProt P03956); assay: Inhibition of MMP1
T3 sequence (P03956 whole entry): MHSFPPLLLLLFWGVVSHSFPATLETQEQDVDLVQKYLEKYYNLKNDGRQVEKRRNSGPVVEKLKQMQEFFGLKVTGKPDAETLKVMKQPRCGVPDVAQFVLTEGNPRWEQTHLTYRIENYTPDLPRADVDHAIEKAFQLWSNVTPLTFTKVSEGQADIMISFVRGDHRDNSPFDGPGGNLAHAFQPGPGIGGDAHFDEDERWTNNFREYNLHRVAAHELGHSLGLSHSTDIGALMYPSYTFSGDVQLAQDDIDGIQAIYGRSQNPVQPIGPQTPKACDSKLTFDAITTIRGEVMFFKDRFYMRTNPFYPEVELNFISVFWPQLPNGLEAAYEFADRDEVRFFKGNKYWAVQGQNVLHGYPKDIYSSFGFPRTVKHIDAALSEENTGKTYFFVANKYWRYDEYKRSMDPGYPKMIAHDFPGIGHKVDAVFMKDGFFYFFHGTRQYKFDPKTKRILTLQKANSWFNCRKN

Stromelysin-1 [3] = target: T4, Stromelysin-1 (Homo sapiens, UniProt P08254); assay: Inhibition of MMP3
Target sequence in this assay (P08254 whole entry): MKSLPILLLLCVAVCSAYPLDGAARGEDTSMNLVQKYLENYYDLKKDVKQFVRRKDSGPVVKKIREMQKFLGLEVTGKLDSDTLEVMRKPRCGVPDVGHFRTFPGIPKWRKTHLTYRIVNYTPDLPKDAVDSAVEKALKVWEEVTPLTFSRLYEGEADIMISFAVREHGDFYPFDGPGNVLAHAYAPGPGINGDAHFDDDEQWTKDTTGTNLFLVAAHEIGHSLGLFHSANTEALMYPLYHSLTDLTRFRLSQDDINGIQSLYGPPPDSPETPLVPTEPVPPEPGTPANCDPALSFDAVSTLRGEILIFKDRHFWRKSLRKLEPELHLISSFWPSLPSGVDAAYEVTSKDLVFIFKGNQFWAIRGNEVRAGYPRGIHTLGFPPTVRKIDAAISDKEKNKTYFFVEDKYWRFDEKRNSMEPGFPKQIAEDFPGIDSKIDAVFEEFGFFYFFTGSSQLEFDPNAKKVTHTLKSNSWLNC

Collagenase 3 = Collagenase 3 (Homo sapiens, UniProt P45452); assay: Inhibition of MMP13
[4] = Plasma concentration in mouse at 10 mg/kg, po after 1 hr
[5] = Drug level in rat at 2 mg/kg, iv; type: ADME, organism-based; set-up: dose 2 mg/kg, route intravenous; conditions: in vivo
Mus musculus = assay: Reduction of focal ischemia-induced brain edema in C57 Black/6 mouse at 6 mg/kg, iv after 2 hrs by wet/dry method; type: functional, organism-based; set-up: dose 6 mg/kg
[6] = Apparent elimination half life in rat at 2 mg/kg, iv; type: ADME, organism-based; set-up: dose 2 mg/kg, route intravenous; conditions: in vivo
Rattus norvegicus = assay: AUC in rat at 2 mg/kg, iv; type: ADME, organism-based, Plasma; set-up: dose 2 mg/kg, route intravenous; conditions: in vivo
[7] = Volume of distribution at steady state in rat at 2 mg/kg, iv; type: ADME, organism-based; set-up: dose 2 mg/kg, route intravenous; conditions: in vivo, read-out: Vdss
Stromelysin-1 [8] = target: T4, Stromelysin-1; assay: Inhibition of MMP3 at 100 uM
Target sequence in this assay (P08254 100-477 limits assumed): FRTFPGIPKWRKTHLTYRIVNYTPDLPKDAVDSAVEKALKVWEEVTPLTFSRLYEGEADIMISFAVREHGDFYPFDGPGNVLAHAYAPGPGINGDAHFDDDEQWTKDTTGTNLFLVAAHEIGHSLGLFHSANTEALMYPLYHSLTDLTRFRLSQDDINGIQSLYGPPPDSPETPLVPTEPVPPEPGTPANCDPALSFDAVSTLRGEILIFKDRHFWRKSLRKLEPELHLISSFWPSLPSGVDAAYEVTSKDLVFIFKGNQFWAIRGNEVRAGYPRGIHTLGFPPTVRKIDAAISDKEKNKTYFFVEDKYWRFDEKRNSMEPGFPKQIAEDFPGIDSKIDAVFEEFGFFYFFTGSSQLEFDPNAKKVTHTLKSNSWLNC

[9] = target: T1, Matrix metalloproteinase-9; assay: Inhibition of MMP9 at 100 uM
[10] = target: T2, 72 kDa type IV collagenase; conditions: 100 uM
Target sequence in this assay (P08253 110-660 limits assumed): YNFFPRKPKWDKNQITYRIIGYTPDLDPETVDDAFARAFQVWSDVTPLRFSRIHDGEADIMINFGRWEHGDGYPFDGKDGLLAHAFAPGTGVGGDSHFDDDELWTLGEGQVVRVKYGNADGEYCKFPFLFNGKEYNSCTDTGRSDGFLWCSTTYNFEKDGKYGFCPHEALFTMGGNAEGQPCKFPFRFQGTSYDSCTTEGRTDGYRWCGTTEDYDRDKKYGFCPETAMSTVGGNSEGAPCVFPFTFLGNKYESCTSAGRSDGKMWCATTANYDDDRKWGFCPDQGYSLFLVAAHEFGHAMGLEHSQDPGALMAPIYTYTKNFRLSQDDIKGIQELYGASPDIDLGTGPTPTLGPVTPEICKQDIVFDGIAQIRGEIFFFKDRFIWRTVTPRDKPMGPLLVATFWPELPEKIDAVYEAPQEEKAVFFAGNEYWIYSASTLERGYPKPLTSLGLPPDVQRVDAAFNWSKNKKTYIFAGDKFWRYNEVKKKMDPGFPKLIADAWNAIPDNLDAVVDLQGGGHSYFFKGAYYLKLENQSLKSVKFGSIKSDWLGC
Description: Inhibition of MMP2 at 100 uM

T1 sequence (P14780 whole entry): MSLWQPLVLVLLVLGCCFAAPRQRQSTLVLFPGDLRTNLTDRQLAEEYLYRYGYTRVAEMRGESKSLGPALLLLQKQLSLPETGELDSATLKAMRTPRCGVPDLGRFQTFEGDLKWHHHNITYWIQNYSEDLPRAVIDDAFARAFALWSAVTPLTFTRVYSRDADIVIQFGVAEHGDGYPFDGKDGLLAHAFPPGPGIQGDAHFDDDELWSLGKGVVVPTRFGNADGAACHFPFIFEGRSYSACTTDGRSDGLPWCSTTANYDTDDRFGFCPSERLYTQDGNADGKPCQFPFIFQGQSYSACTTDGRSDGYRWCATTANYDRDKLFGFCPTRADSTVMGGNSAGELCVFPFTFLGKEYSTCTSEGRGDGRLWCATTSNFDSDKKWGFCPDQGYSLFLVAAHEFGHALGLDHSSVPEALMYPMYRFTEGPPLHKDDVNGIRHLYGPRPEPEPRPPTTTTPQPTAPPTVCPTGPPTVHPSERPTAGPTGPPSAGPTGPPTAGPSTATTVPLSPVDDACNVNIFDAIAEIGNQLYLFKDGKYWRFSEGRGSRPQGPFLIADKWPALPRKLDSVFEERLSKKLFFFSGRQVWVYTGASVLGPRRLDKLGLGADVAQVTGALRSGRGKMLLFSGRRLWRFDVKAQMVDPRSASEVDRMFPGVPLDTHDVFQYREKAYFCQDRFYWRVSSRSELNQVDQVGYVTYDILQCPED

| IC50 [1] [nM] | IC50 [2] [nM] | Structure (SMILES) | IC50 (Interstitial collagenase) [nM] | IC50 (Stromelysin-1 [3]) [nM] | IC50 (Collagenase 3) [nM] | also measured |
| --- | --- | --- | --- | --- | --- | --- |
| 57.5 | 41 | CC(C)N(c1cccn(O)c1=O)S(=O)(=O)c1ccc(Oc2ccccc2)cc1 | – | – | – | – |
| 5 | 8.3 | CN(c1cccn(O)c1=O)S(=O)(=O)c1ccc(Oc2ccccc2)cc1 | – | – | – | – |
| 1.8 | – | CN(c1cccn(O)c1=O)S(=O)(=O)c1ccc(Oc2ccc(OC(F)(F)F)cc2)cc1 | – | – | – | – |
| – | – | Cc1cc(=O)c(O)c(C(=O)NCc2ccc(-c3ccccc3)cc2)o1 | – | – | – | inhibition (Stromelysin-1 [8]): 34%; inhibition [9]: 34%; inhibition [10]: 34% |
| 3.6 | 6.5 | CCN(c1cccn(O)c1=O)S(=O)(=O)c1ccc(Oc2ccccc2)cc1 | – | – | – | – |
| – | – | COc1ccc(Oc2ccc(S(=O)(=O)N(C)c3cccn(O)c3=O)cc2)cc1 | > 1000 | 79.1 | 6.8 | – |
| 4.4 | 6.1 | Cc1ccc(Oc2ccc(S(=O)(=O)N(C)c3cccn(O)c3=O)cc2)cc1 | – | – | – | – |
| – | – | O=c1c(N(CCN2CCOCC2)S(=O)(=O)c2ccc(Oc3ccc(Cl)cc3)cc2)cccn1O | > 1000 | 62.9 | 4 | – |

| Structure (SMILES) | IC50 [1] [nM] | IC50 [2] [nM] | IC50 (Interstitial collagenase) [nM] | IC50 (Stromelysin-1 [3]) [nM] | IC50 (Collagenase 3) [nM] | also measured |
| --- | --- | --- | --- | --- | --- | --- |
| CN(c1cccn(O)c1=O)S(=O)(=O)c1ccc(Oc2ccc(Cl)cc2)cc1 | 2.4 | 5 | > 1000 | 56.5 | 2.5 | concentration at 1 h [4]: 34 µM; C0 [5]: 8.4 µM; Activity (Mus musculus): Active; half-life [6]: 47 h; AUC (Rattus norvegicus): 179 µg·h/mL; Vd [7]: 1.75 L/kg |
